Where “and” joins values, the source holds several entries; their conditions need not be identical. Identical values can stand only once.
Experiments:
[1] = test system: C57BL/6J mice fed MFMC diet; test: Diet-induced hyperlipidemia: serum and liver TC/TG and FPLC lipoprotein profile in mice on MFMC diet; type: in vivo; details: for TC levels in liver, mean / TC levels in the serum, mean / TG levels in liver, mean / TG levels in the serum, mean / TC levels in liver, individual mice / TC levels in the serum, individual mice / TG levels in liver, individual mice / TG levels in the serum, individual mice: 60 mg/kg/day (each agent) gavage once daily 6 weeks; for TC levels in liver, individual mice / TC levels in the serum, individual mice / TG levels in liver, individual mice / TG levels in the serum, individual mice: 60 mg/kg/day; for total cholesterol (TC) and triglyceride (TG) levels in both serum and liver / cholesterol contents in VLDL, LDL and HDL (FPLC serum lipoprotein profile): 6 weeks; for total cholesterol (TC) and triglyceride (TG) levels in both serum and liver: in words; for cholesterol contents in VLDL, LDL and HDL (FPLC serum lipoprotein profile): pooled serum
Text: Male C57BL/6 mice (8-week-old) were obtained from Shanghai Laboratory Animal Company (SLAC) (Shanghai, China). Male Ldlr^−/− mice (8-week-old) were obtained from Nanjing Biomedical Research Institute of Nanjing University (Nanjing, China). Mice had ad libitum access to water and standard chow diet (SLAC) unless mentioned otherwise. Special diets included medium-fat-medium-cholesterol diet (chow diet with10% fat, 0.2% cholesterol and 0.5% sodium cholate, custom made in SLAC), and western diet (20% fat, 1.25% cholesterol, 0.5% sodium cholate, D12109C, Research Diets). Mice were maintained in a pathogen-free environment and kept on a 12-h light/dark schedule. Mice were gavaged as described in figure legends with saline containing 0.5% methyl cellulose and 0.5% Tween-80. All mice were used in accordance with the guidelines approved by the Institutional Animal Care and Use Committee of Wuhan University.
Mice were anesthetized and blood collection was performed. Serum was prepared from blood by centrifuging at 1500 × g for 10 min. Livers were harvested and homogenized in a 2:1 mixture of chloroform and methanol using Precellys 24 (Bertin). The organic phase was dried under N2 and liver lipids were reconstituted in ethanol. Total cholesterol and triglyceride levels in the serum and liver were determined using Cholesterol Assay Kit and Triglyceride Assay Kit (Shanghai Kehua Bio-engineering, China).
Serum lipoproteins were separated by FPLC (AKTA, GE Healthcare) using Superdex 75 10/300 GL (GE Healthcare) column. One hundred microliters pooled serum from five mice per group was diluted with 200 μl PBS, and loaded to the column. Fractions were eluted with PBS at a constant rate of 0.2 ml min^–1, and collected with 300 μl per tube. 100 μl fractions were used to quantify the concentration of total cholesterol level with the Amplex Red Cholesterol Assay Kit (Invitrogen). The cholesterol distribution curves of lipoproteins were done with GraphPad Prism 6 software.

[2] = Body weight and food intake of treated mice; type: in vivo
HMGCR (TM1-8)-GFP [3] = target: T1, HMGCR (TM1-8)-GFP (Cricetulus griseus, UniProt P00347)
T1 sequence (P00347 1-346): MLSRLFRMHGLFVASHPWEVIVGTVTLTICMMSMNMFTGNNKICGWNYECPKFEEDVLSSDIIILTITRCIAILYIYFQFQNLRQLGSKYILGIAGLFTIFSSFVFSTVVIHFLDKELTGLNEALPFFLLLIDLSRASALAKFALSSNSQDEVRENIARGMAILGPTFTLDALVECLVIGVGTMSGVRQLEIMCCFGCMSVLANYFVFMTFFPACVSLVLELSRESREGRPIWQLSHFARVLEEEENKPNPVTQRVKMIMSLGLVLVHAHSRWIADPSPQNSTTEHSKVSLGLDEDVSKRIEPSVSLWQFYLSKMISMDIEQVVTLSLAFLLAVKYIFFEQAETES
Description: (§1) We thus generated a cell line stably expressing the transmembrane domain of HMGCR fused with green fluorescent protein (GFP) as a reporter (HMGCR (TM1-8)-GFP) (Fig. 2a).
(§2) CHO-7 cells were transfected with pCMV-HMGCR (TM1-8)-GFP using FuGENE HD. Twenty-four hours, cells were switched to medium B supplemented with 5% FBS and selected in the presence of 1 mg ml^−1 G418 for 2 weeks. Surviving colonies were isolated and confirmed for GFP expression by immunoblotting and immunofluorescence. The resulting CHO-7/HMGCR (TM1-8)-GFP stable cell line (CHG) was maintained in medium B supplemented with 5% FBS and 200 μg ml^−1 G418.
(§3) CHG cells were treated as described in figure legends. Briefly, cells were seeded at day 0 in 96-well black plate (3904, Corning) at a density of 1.5 × 10^4 cells per well, in medium B containing with 5% LPDS. Day 1, corresponding compounds were added as figure legends described in medium B with 5% LPDS, 1 μM lovastatin, 50 μM sodium mevalonate for 16 h. Then cells were fixed with 4% paraformaldehyde for 20 min, washed with PBS for three times, and stained with 2 μg ml^−1 Hoechst 33342.
(§4) The fluorescent images (GFP and Hoechst channel) were captured using an Operatta High-Content Imaging System (PerkinElmer) with a ×20 objective. The cytoplasmic GFP fluorescence was measured with the Harmony Software (PerkinElmer). Five random selected filed per well were captured, and about 3000 cells were used to determine the mean cytoplasmic GFP fluorescent intensity per cell after subtracting background GFP intensity. The average GFP intensity of DMSO-treated cells was defined as 100.

HMGCR (TM1-8)-GFP [4] = target: T1, HMGCR (TM1-8)-GFP; test: HMGCR (TM1-8)-GFP fluorescent assay (high-content imaging) in CHG cells; details: for Mean (HMGCR (TM1-8)-GFP signal relative to 0 μM = 100): Figure 4 source data
Description: as §1, §2, §3, §4

Hmgcr mRNA = test: RT-qPCR of hepatic Hmgcr mRNA of gavaged mice; type: in vivo; details: C57BL/6J mice, 60 mg/kg/day gavage once daily 7 days
Description: Cells were treated as described in corresponding figure legends, then total RNA was extracted from cells or mouse livers using TRI Reagent ([…], Sigma-Aldrich). Equal amounts of RNA from cells or mice receiving the same treatment were pooled were used for cDNA synthesis with oligo dT and reverse transcriptase MLV (Promega). Gene expression was analyzed by quantitative real-time PCR on a Stratagene […] Systems. The primers used were listed in Supplementary Tables 2-4. Male C57BL/6 mice (8-week-old) were obtained from Shanghai Laboratory Animal Company (SLAC) (Shanghai, China). Male Ldlr^-/- mice (8-week-old) were obtained from Nanjing Biomedical Research Institute of Nanjing University (Nanjing, China). […] Mice were maintained in a pathogen-free environment and kept on a 12-h light/dark schedule. Mice were gavaged as described in figure legends with saline containing 0.5% methyl cellulose and 0.5% Tween-80. All mice were used in accordance with the guidelines approved by the Institutional Animal Care and Use Committee of Wuhan University.

[5] = C57BL/6J mice, MFMC diet, 6 weeks

Row | SMILES | TC levels in liver, mean [1] | TC levels in the serum, mean [1] | TG levels in liver, mean [1] | TG levels in the serum, mean [1] | TC levels in liver, individual mice [1] | TC levels in the serum, individual mice [1] | TG levels in liver, individual mice [1] | TG levels in the serum, individual mice [1] | total cholesterol (TC) and triglyceride (TG) levels in both serum and liver [1] | cholesterol contents in VLDL, LDL and HDL (FPLC serum lipoprotein profile) [1] | body weight and food intake [2, 5] | further results
1 | C=CCC(O)(CC=C)CCCC(C)C1CCC2C3C(O)C=C4C(C)(C)C(O)CCC4(C)C3CCC12C (stereo not drawn) [Cmpd 81] | 3.712 | 104.81 | 12.3264 | 55.4414 | 3.732 and 3.964 and 3.655 and 3.864 and 3.346 | 111 and 100.379 and 112.009 and 105.661 and 95 | 12.9147 and 9.311 and 13.437 and 16.1354 and 9.834 | 60.1534 and 51.6317 and 49.6138 and 57.1457 and 58.6623 | significantly lowered | reduced to similar levels | remained comparable | body weight and food intake ([2]; Ldlr−/− mice, WD, up to 20 weeks): did not affect; DC50 (HMGCR (TM1-8)-GFP [3]): 410 nM; Mean (HMGCR (TM1-8)-GFP signal relative to 0 μM = 100) (HMGCR (TM1-8)-GFP [4]; compound 0.156 μM): 80.6979; Mean (HMGCR (TM1-8)-GFP signal relative to 0 μM = 100) (HMGCR (TM1-8)-GFP [4]; compound 0.313 μM): 58.3802; Mean (HMGCR (TM1-8)-GFP signal relative to 0 μM = 100) (HMGCR (TM1-8)-GFP [4]; compound 0.625 μM): 35.2515; Mean (HMGCR (TM1-8)-GFP signal relative to 0 μM = 100) (HMGCR (TM1-8)-GFP [4]; compound 1.25 μM): 17.0524; Mean (HMGCR (TM1-8)-GFP signal relative to 0 μM = 100) (HMGCR (TM1-8)-GFP [4]; compound 2.5 μM): 14.0516; Mean (HMGCR (TM1-8)-GFP signal relative to 0 μM = 100) (HMGCR (TM1-8)-GFP [4]; compound 5 μM): 2.6212; Mean (HMGCR (TM1-8)-GFP signal relative to 0 μM = 100) (HMGCR (TM1-8)-GFP [4]; compound 10 μM): 2.9162; potency (EC50) relative to 24,25-DHL (HMGCR (TM1-8)-GFP [4]; more potent than 24,25-DHL): ~4 fold; potency (EC50) relative to cholesterol (HMGCR (TM1-8)-GFP [4]; more potent than cholesterol): approximately 74 fold
2 | CC[C@H](C)C(=O)O[C@H]1C[C@@H](C)C=C2C=C[C@H](C)[C@H](CC[C@@H]3C[C@@H](O)CC(=O)O3)[C@H]21 [Lovastatin, lovastatin] | 3.624 | 103.826 | 12.4726 | 54.3007 | 3.3 and 3.747 and 3.618 and 3.824 and 3.629 | 108.623 and 105.887 and 100.644 and 93.2834 and 110.692 | 14.0603 and 12.8492 and 8.103 and 12.4763 and 14.8742 | 51.0844 and 48 and 54.6444 and 61.1304 and 56.6444 | significantly lowered | reduced to similar levels | remained comparable | hepatic Hmgcr mRNA level, mean (Hmgcr mRNA; vehicle = 1): 2.5 ± 0.2 fold and 2.537 fold; hepatic Hmgcr mRNA level, single values (Hmgcr mRNA; vehicle = 1): 2.5 and 2.78 and 2.33; hepatic Hmgcr mRNA level, mean (Hmgcr mRNA; vehicle = 1, listed as lovastatin): 2.5 fold
